# Experiments:
# [1] = test system: mice fed with high fat; experiment: Storage of visceral and subcutaneous adipose of mice fed with high fat; assay type: in vivo; conditions: for Weight: body weight after 20 weeks
# Method: • 1) The obese mice fed with high fat are subjected to drug administration by intravenous injection for 20 weeks according to experimental steps in embodiment 2; • 2) the mice in the various groups are not fed with food for 12 hours, and are weighed accurately after being anaesthetized with 3% pentobarbital sodium at 45 mg/kg by intraperitoneal injection; • 3) the mice are conventionally sterilized and subjected to laparotomy, kidney surrounding adipose tissues, mesenterium surrounding adipose tissues, epididymis surrounding adipose tissues and abdominal subcutaneous adipose tissues are rapidly picked to weigh wet weight (wherein the range of the abdominal subcutaneous adipose tissues is as follows: the abdomen below an costal arch and above a groin, and a midaxillary line is taken as a boundary for two sides); • 4) the weight is calculated according to the following formula: wet weight of abdominal adipose; adipose pad total weight (g)=the kidney surrounding adipose tissues+the epididymis surrounding adipose tissues; and body adipose content=the adipose pad total weight (g)/body weight (g). • 5) The obtained data is subjected to statistical treatment.
# [2] = test system: mice fed with high-fat diet; experiment: Weight of mice fed with high-fat diet during drug administration; assay type: in vivo; conditions: tail vein injection daily, 12 weeks after drug administration onward, FIG. 5
# Description: Experimental animals: male mice at the age of 6 weeks and feed were provided by the Experimental Animal Center of Nanjing Medical University, license number: SCXK (Su) 2011-0003. The animals are fed in different cages randomly, and drink water freely.
# Experimental drugs: normal diet control group (blank control group); and high-fat diet groups are divided into a normal saline group (model control group), a nano-bubble group, a nano-bubble-curcumin group, a polypeptide nano-bubble group (prepared by step 3) in embodiment 1), a curcumin group and a polypeptide nano-bubble-curcumin group (prepared by step 4) in embodiment 1). […]
# [3] = high-fat diet mice, 20 weeks, n = 10
# [4] = high-fat diet mice, tail vein injection 20 weeks, curcumin 75 mg/kg or nano-bubbles 40 μg/mice/time, n = 10, wet weight
smiles,measurement,setting,value
"COc1cc(/C=C/C(=O)CC(=O)/C=C/c2ccc(O)c(OC)c2)ccc1O [Curcumin, curcumin]",Wet weight of the visceral adipose tissues compared with the model control group,[1]; Table 6,reduced obviously
same,Total weight of visceral adipose tissues,"[1]; Table 6, high-fat diet mice, tail vein injection 20 weeks, n = 10",8.03 ± 0.02 g
same,Body fat mass index compared with the model control group,[1]; Table 7,obviously reduced
same,Weight,"[1]; Table 7, high-fat diet mice, n = 10",34.92 ± 0.96 g
same,Weight,"[1]; Table 8, high-fat diet mice, n = 10",35.72 ± 0.75 g
same,VAT (total weight of visceral adipose tissues),"[1]; Table 8, high-fat diet mice, 20 weeks, n = 10",7.24 ± 0.02 g
same,Body fat mass index,"[1]; fat pad total weight (g)/weight (g), high-fat diet mice, 20 weeks, n = 10",6.38 ± 0.21 %
same,SCAT (subcutaneous adipose tissue total weight),[1]; [3],3.01 ± 0.05 g
same,SCAT/weight,[1]; [3],7.02 ± 0.38
same,VAT/SCAT,[1]; [3],1.78 ± 0.09
same,Amount of visceral adipose tissues: Epididymis surrounding,[1]; [4],1.21 ± 0.18 g
same,Amount of visceral adipose tissues: Kidney surrounding,[1]; [4],0.72 ± 0.05 g
same,Amount of visceral adipose tissues: Omentum and mesenterium surrounding,[1]; [4],0.59 ± 0.02 g
same,Fat pad total weight,"[1]; kidney surrounding + epididymis surrounding adipose tissues, high-fat diet mice, 20 weeks, n = 10",2.34 ± 0.10 g
same,Weight of the subcutaneous adipose compared with the model group,[1]; text on Table 8,remarkably reduced
same,Increasing of the weight of the mice compared with the model control group,[2],obviously inhibited

# From patent publication US20190133964A1, “Polypeptide nano-bubbles and preparation method and application thereof” (NANJING MEDICAL UNIVERSITY, priority 2018, published 2019)
